Patent US6080859A, “Pyrroloindole derivatives and intermediates in producing the same” (priority 1997, dated 2000)
Where a name gives a salt, the structure may show the parent alone. Read-outs that look alike come from different tables or passages of the source.

Columns and labels:
[1] = Decomposition reaction under chemical conditions (half life in buffer solution of pH 7.4, HPLC); format: physicochemical; details: ph 7.4 buffer/dma, pH 7.4 buffer / N,N-dimethylacetamide 50 v/v%, 37° C.
Description: Decomposition reaction under chemical conditions:
A buffer solution of pH 7.4 was prepared by mixing suitably an aqueous 0.1 M citric acid solution and an aqueous 0.2 M disodium hydrogenphosphate solution. The buffer solution was diluted tenfold with water. This buffer solution was further dissolved in N,N-dimethylacetamide at a concentration of 50 v/v%, and its pH was adjusted to 7.4 by adding suitable amount of aqueous 0.1 M citric acid solution to prepare a buffer solution. The test compounds were dissolved respectively in the buffer solution at a concentration of 5 μM to prepare the test sample solutions. The test sample solutions were placed respectively in a glass vial, and the glass vials were kept at 37° C. in a thermostat. The change of the concentration of remaining test compounds with lapse of time was determined quantitatively intermittently by high performance liquid chromatography (HPLC) to measure the half life (t1/2 : hours).

[2] = system: M5076/ADR cells (adriamycin-resistant strain); experiment: Evaluation with mouse bearing M5076/ADR cells (adriamycin-resistant strain) transplanted subcutaneously; format: in vivo, mouse (female, BDFI strain); details: 1.0 mg/kg, single injection into tail vein nine days after transplantation; tumor weighed 13 days after injection
Description: Evaluation with mouse bearing M5076/ADR cells (adriamycin-resistant strain) transplanted subcutaneously:
M5076/ADR cells (adriamycin-resistant strain) were transplanted subcutaneously at the axillary region of female mice (BDFI strain, 8 week age) in an amount of 3.0×10^6 cells for an individual mouse. Nine days after the transplantation, the test compound solution was injected once into the tail vein. After 13 days from the injection, the tumor was excised and weighed. The antitumor activity was evaluated by the ratio (T/C) of the average tumor weight (T) of the administrated group to the average tumor weight (C) of control group to which solvent was administrated.

[3] = read-out: Half life (t1/2) (converted)
[4] = * Average of the half lives of the diastereomers, read-out: Half life (t1/2), average of the half lives of the diastereomers (converted)

| Structure (SMILES) | half-life at 5 µM [1, 3] [h] | half-life at 5 µM [1, 4] [h] | T/C (ratio of average tumor weight of administrated group to control group) [2] |
| --- | --- | --- | --- |
| COC(=O)c1c(C(F)(F)F)[nH]c2c(OC(=O)N3CCC[C@H]3CO)cc3c(c12)[C@H](CCl)CN3C(=O)c1cc2cc(NC(=O)c3cc4cccc(OC)c4o3)ccc2[nH]1 [Example 1, methyl (1S)-chloromethyl-5-{[(2S)-hydroxymethylpyrrolidin-1-ylcarbonyl]oxy}-3-[5-(7-methoxybenzofuran-2-ylcarbonyl)amino-1H-indol-2-ylcarbonyl]-7-trifluoromethyl-1,2,3,6-tetrahydropyrrolo[3,2-e]indole-8-carboxylate] | > 8 | – | – |
| COC(=O)c1c(C(F)(F)F)[nH]c2c(OC(=O)N3CCOCC3CO)cc3c(c12)[C@H](CCl)CN3C(=O)c1cc2cc(NC(=O)c3cc4cccc(OC)c4o3)ccc2[nH]1 (mixture of isomers) [Example 7, methyl (1S)-chloromethyl-5-{[(3RS)-hydroxymethylmorpholin-4-ylcarbonyl]oxy}-3-[5-(7-methoxybenzofuran-2-ylcarbonyl)amino-1H-indol-2-ylcarbonyl]-7-trifluoromethyl-1,2,3,6-tetrahydropyrrolo[3,2-e]indole-8-carboxylate] | – | 1.7 | – |
| COC(=O)c1c(C(F)(F)F)[nH]c2c(OC(=O)N3CCN(C)CC3CCO)cc3c(c12)[C@H](CCl)CN3C(=O)c1cc2cc(NC(=O)c3cc4cccc(OC)c4o3)ccc2[nH]1 (stereo partly drawn) [Example 6, hydrochloride of methyl (1S)-chloromethyl-5-{[(2RS)-hydroxyethyl-4-methylpiperazin-1-ylcarbonyl]oxy}-3-[5-(7-methoxybenzofuran-2-ylcarbonyl)amino-1H-indol-2-ylcarbonyl]-7-trifluoromethyl-1,2,3,6-tetrahydropyrrolo[3,2-e]indole-8-carboxylate] | – | 5.8 | 0.02 |
| COC(=O)c1c(C(F)(F)F)[nH]c2c(OC(=O)N3CCN(C)CC3CO)cc3c(c12)[C@H](CCl)CN3C(=O)c1cc2cc(NC(=O)c3cc4cccc(OC)c4o3)ccc2[nH]1 (stereo partly drawn) [Example 5, hydrochloride of methyl (1S)-chloromethyl-5-{[(2RS)-hydroxymethyl-4-methylpiperazin-1-ylcarbonyl]oxy}-3-[5-(7-methoxybenzofuran-2-ylcarbonyl)amino-1H-indol-2-ylcarbonyl]-7-trifluoromethyl-1,2,3,6-tetrahydropyrrolo[3,2-e]indole-8-carboxylate] | – | 1.7 | 0.01 |
| COC(=O)c1c(C(F)(F)F)[nH]c2c(OC(=O)N3CCC[C@H]3CN3CCCC3)cc3c(c12)[C@H](CCl)CN3C(=O)c1cc2cc(NC(=O)c3cc4cccc(OC)c4o3)ccc2[nH]1 [Example 3, methyl (1S)-chloromethyl-5-{[(2S)-(pyrrolidin-l-ylmethyl)pyrrolidin-1-ylcarbonyl]oxy}-3-[5-(7-methoxybenzofuran-2-ylcarbonyl)amino-1H-indol-2-ylcarbonyl]-7-trifluoromethyl-1,2,3,6-tetrahydropyrrolo[3,2-e]indole-8-carboxylate] | 1 | – | – |
| COC(=O)c1c(C(F)(F)F)[nH]c2c(OC(=O)N3C[C@H](O)C[C@H]3CO)cc3c(c12)[C@H](CCl)CN3C(=O)c1cc2cc(NC(=O)c3cc4cccc(OC)c4o3)ccc2[nH]1 [Example 2, methyl (1S) -chloromethyl-5-{[(4R)-hydroxy-(2S)-hydroxymethylpyrrolidin-1-ylcarbonyl]oxy}-3-[5-(7-methoxybenzofuran-2-ylcarbonyl)amino-1H-indol-2-ylcarbonyl]-7-trifluoromethyl-1,2,3,6-tetrahydropyrrolo[3,2-e]indole-8-carboxylate] | > 8 | – | – |
| COC(=O)c1c(C(F)(F)F)[nH]c2c(OC(=O)N3CCCCC3CO)cc3c(c12)[C@H](CCl)CN3C(=O)c1cc2cc(NC(=O)c3cc4cccc(OC)c4o3)ccc2[nH]1 (mixture of isomers) [Example 4, methyl (1S)-chloromethyl-5-{[(2RS)-hydroxymethylpiperidin-1-ylcarbonyl]oxy}-3-[5-(7-methoxybenzofuran-2-ylcarbonyl)amino-1H-indol-2-ylcarbonyl]-7-trifluoromethyl-1,2,3,6-tetrahydropyrrolo[3,2-e]indole-8-carboxylate] | – | > 8 | 0.01 |
